Test results: ChEMBL document CHEMBL1201862, “PubChem BioAssay data set” (2004)
The source made the active and inactive calls.

How the values were obtained:
[1] = biological target: 72 kDa type IV collagenase (Homo sapiens, UniProt P08253); test: Dose Response validation of uHTS RPN11 inhibitor hits using a MMP-2 Fluorescence assay.; format: functional
[2] = biological target: 26S proteasome non-ATPase regulatory subunit 14 (Homo sapiens, UniProt O00487); test: inhibition of proteasome subunit RPN11 – biochemical, fluorescence polarization, uHTS hits, confirmation (AID 602368); format: functional
26S proteasome non-ATPase regulatory subunit 14, sequence (O00487 whole entry): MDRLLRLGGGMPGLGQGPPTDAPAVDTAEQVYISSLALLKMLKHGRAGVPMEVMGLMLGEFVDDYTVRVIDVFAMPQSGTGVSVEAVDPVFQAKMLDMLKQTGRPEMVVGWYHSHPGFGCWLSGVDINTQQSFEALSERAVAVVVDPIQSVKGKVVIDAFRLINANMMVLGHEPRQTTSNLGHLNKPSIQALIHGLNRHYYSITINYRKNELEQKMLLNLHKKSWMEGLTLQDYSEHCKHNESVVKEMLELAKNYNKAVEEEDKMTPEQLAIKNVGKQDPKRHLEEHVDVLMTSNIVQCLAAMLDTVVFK

[3] = rescue of ΔF508 CFTR function, airway epithelium – human bronchial epithelial cells, plate reader, cherry-pick, two tests, dose response (AID 743267); format: functional, cell-based
[4] = biological target: T1, Rac GTPase-activating protein 1 (Homo sapiens, UniProt Q9H0H5); test: blockers of MgcRacGAP-driven Rac1 GTP hydrolysis – biochemical, ADP Hunter fluorescence, primary and confirmatory, confirmation (AID 624330); format: functional
T1 sequence (Q9H0H5 whole entry): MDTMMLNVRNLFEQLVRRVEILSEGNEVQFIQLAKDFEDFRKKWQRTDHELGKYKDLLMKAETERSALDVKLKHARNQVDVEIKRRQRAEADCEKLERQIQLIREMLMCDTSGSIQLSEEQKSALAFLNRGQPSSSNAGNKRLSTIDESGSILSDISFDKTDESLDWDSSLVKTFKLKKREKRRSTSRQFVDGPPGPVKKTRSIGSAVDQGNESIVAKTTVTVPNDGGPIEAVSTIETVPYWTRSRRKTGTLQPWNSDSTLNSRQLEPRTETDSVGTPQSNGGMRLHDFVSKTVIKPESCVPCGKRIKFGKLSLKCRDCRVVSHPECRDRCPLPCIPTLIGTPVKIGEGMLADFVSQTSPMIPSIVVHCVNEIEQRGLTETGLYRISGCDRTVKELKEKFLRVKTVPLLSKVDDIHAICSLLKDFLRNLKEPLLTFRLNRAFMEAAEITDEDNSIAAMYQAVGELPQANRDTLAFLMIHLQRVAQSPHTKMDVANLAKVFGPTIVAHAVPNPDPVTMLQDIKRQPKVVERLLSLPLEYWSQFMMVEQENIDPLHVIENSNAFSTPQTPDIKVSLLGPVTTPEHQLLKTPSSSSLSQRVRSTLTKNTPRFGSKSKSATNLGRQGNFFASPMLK

[5] = biological target: Prothrombin (Bos taurus, UniProt P00735); test: thrombin protease inhibitors – biochemical, fluorescence polarization, uHTS hits, dose response (AID 602369); format: functional
[6] = biological target: T2, Aminopeptidase N (Plasmodium falciparum FcB1/Columbia, UniProt O96935); test: malaria alanyl aminopeptidase activity blockers – biochemical, fluorogenic H-Leu-NHMec substrate, 1536-well (AID 1445); set-up: species or system Plasmodium falciparum 3D7, 3D7
T2 sequence (O96935 whole entry): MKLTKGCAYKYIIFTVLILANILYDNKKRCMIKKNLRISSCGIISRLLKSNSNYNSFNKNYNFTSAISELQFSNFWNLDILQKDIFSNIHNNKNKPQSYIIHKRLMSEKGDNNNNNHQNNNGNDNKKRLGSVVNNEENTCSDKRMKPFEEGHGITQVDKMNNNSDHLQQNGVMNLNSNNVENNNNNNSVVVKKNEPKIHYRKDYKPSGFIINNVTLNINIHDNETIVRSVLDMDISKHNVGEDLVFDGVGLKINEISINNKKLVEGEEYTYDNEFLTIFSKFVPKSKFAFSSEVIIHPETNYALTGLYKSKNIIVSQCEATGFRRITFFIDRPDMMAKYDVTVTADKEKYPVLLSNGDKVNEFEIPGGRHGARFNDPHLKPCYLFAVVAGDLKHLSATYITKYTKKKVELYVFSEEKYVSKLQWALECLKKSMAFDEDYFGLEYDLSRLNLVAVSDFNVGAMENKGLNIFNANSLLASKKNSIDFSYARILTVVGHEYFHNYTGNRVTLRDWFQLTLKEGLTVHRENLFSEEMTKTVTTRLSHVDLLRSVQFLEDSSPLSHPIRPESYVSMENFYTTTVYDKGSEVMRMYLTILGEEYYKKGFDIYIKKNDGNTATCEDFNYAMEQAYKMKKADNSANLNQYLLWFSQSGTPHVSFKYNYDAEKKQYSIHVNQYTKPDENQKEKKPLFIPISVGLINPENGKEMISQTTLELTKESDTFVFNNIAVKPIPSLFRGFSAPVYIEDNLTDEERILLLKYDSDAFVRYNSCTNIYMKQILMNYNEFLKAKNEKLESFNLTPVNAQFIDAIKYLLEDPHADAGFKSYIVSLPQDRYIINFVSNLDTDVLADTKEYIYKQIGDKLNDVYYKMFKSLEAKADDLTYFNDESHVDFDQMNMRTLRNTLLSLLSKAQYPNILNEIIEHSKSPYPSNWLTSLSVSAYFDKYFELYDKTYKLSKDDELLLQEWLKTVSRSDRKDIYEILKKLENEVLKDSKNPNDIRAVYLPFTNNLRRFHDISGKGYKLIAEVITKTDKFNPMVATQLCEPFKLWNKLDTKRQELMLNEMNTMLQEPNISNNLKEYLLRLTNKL

[7] = biological target: Serine/threonine-protein kinase Chk1 (Homo sapiens, UniProt O14757); format: functional;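 note: measured as one member of a kinome-wide kinase profiling panel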
[8] = biological target: Cyclin-dependent kinase 5 (Homo sapiens, UniProt Q00535); format: functional;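 note: CDK5 measured as one member of a kinase profiling panel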
[9] = biological target: T3, Activin receptor type-1 (Homo sapiens, UniProt Q04771); test: Navigating the Kinome. Panel member name: ACVR1; format: functional
T3 sequence (Q04771 whole entry): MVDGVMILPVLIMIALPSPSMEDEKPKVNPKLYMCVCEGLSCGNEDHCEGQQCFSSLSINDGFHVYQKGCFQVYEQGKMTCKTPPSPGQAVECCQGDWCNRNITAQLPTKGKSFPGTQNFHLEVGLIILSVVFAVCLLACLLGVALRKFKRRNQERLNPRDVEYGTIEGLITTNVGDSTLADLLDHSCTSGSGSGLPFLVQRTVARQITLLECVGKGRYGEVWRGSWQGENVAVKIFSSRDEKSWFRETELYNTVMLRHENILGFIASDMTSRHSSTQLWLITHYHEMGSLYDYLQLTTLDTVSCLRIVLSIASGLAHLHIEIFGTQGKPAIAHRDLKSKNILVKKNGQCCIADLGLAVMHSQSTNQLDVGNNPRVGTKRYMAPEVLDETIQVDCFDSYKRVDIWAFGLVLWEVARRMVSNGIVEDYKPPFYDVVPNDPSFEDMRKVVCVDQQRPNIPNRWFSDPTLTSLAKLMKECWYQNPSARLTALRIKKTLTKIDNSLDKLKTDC

[10] = biological target: Dual specificity tyrosine-phosphorylation-regulated kinase 1A (Homo sapiens, UniProt Q13627); format: functional;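 note: measured against DYRK1A as one member of a broad kinome profiling panel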
[11] = biological target: LIM domain kinase 1 (Homo sapiens, UniProt P53667); test: Navigating the Kinome. Panel member name: LIMK1; format: functional
LIM domain kinase 1, sequence (P53667 whole entry, the tested form may be a part): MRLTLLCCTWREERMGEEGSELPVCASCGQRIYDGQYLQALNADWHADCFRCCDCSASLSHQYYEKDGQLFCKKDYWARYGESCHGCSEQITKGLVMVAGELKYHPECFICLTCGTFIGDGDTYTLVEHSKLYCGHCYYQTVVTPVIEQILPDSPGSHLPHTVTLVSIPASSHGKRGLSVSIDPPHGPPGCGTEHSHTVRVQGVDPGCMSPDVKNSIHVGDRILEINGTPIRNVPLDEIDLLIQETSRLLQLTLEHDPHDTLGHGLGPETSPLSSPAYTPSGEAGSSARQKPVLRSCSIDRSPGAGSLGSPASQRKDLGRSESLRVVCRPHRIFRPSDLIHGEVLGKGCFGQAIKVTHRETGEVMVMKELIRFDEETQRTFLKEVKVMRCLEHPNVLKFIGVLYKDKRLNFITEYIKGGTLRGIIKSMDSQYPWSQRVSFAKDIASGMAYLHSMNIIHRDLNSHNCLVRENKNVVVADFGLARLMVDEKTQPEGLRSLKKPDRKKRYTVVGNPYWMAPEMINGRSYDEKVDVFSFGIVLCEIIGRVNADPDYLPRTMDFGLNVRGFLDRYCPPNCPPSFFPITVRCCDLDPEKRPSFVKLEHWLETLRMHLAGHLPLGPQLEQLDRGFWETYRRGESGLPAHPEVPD

[12] = biological target: Death-associated protein kinase 3 (Homo sapiens, UniProt O43293); format: functional;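 note: measured as one member of a kinome-wide profiling panel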
[13] = biological target: Tyrosine-protein kinase receptor TYRO3 (Homo sapiens, UniProt Q06418); format: functional;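 note: TYRO3 value obtained as one member of a kinome-wide profiling panel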
[14] = biological target: Focal adhesion kinase 1 (Homo sapiens, UniProt Q05397); format: functional;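 note: measured as one member of a kinome panel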
Focal adhesion kinase 1, sequence (Q05397 whole entry): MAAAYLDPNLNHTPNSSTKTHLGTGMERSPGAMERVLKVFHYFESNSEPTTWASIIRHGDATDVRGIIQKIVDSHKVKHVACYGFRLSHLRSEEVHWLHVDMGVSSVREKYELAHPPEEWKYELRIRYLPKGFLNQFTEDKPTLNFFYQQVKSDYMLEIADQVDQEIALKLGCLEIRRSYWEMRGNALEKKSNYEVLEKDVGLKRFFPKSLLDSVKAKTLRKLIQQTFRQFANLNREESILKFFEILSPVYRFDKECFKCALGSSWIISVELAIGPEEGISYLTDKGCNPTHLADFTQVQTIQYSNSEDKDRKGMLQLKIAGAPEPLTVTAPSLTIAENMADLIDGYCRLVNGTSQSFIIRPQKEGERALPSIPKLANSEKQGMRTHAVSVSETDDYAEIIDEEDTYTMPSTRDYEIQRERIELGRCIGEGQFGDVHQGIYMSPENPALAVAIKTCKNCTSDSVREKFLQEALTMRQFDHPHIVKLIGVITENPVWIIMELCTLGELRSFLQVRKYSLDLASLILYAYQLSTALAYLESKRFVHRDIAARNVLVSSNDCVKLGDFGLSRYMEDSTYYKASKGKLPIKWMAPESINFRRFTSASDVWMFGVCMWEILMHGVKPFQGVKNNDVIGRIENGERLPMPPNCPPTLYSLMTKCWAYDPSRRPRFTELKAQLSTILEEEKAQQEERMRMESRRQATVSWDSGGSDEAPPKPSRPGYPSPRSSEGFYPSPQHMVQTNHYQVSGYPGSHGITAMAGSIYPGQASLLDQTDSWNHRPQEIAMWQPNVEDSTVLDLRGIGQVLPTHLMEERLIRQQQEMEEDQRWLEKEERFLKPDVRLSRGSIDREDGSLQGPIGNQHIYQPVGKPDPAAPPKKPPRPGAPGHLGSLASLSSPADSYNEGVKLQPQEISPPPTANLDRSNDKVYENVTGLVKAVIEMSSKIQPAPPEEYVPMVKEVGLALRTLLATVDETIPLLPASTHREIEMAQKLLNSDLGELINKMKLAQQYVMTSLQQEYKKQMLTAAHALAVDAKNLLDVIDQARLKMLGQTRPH

[15] = biological target: Dual specificity tyrosine-phosphorylation-regulated kinase 1B (Homo sapiens, UniProt Q9Y463); test: Navigating the Kinome. Panel member name: DYRK1B; format: functional
[16] = biological target: cAMP-dependent protein kinase catalytic subunit PRKX (Homo sapiens, UniProt P51817); format: functional
[17] = biological target: Cyclin-dependent kinase 8 (Homo sapiens, UniProt P49336); test: Navigating the Kinome. Panel member name: CDK8; format: functional
[18] = biological target: Leucine-rich repeat serine/threonine-protein kinase 2 (Homo sapiens, UniProt Q5S007); format: functional;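 note: value from a broad kinome-wide panel profiling study in which LRRK2 was one of the kinases tested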
[19] = biological target: Serine/threonine-protein kinase pim-1 (Homo sapiens, UniProt P11309); format: functional
Serine/threonine-protein kinase pim-1, sequence (P11309 whole entry): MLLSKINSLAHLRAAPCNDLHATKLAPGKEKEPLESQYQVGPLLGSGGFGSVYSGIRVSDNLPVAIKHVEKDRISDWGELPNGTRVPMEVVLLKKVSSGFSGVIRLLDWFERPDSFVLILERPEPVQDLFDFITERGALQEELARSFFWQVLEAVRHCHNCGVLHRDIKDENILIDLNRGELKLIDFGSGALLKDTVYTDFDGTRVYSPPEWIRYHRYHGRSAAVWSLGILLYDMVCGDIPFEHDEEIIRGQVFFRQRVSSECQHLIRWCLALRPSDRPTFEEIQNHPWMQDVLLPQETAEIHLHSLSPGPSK

[20] = biological target: Leukocyte tyrosine kinase receptor (Homo sapiens, UniProt P29376); test: Navigating the Kinome. Panel member name: LTK; format: functional
[21] = biological target: Dual specificity protein kinase CLK4 (Homo sapiens, UniProt Q9HAZ1); format: functional
Dual specificity protein kinase CLK4, sequence (Q9HAZ1 whole entry): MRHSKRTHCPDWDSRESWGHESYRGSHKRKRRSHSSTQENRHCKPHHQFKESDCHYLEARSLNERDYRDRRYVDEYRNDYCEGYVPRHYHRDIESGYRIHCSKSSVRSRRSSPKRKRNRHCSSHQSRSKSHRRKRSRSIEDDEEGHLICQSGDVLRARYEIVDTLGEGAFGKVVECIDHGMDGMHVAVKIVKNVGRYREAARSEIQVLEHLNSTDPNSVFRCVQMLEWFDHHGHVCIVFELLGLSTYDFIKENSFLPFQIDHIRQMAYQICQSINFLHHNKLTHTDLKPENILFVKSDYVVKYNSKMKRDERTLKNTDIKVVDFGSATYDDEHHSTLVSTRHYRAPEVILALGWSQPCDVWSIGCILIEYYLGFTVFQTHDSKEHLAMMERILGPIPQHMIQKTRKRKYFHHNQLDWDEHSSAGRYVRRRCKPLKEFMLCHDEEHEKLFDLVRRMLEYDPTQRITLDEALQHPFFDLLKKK

[22] = biological target: Proto-oncogene tyrosine-protein kinase receptor Ret (Homo sapiens, UniProt P07949); format: functional;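 note: measured within a kinome-wide profiling panel, RET as the panel member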
Proto-oncogene tyrosine-protein kinase receptor Ret, sequence (P07949 whole entry): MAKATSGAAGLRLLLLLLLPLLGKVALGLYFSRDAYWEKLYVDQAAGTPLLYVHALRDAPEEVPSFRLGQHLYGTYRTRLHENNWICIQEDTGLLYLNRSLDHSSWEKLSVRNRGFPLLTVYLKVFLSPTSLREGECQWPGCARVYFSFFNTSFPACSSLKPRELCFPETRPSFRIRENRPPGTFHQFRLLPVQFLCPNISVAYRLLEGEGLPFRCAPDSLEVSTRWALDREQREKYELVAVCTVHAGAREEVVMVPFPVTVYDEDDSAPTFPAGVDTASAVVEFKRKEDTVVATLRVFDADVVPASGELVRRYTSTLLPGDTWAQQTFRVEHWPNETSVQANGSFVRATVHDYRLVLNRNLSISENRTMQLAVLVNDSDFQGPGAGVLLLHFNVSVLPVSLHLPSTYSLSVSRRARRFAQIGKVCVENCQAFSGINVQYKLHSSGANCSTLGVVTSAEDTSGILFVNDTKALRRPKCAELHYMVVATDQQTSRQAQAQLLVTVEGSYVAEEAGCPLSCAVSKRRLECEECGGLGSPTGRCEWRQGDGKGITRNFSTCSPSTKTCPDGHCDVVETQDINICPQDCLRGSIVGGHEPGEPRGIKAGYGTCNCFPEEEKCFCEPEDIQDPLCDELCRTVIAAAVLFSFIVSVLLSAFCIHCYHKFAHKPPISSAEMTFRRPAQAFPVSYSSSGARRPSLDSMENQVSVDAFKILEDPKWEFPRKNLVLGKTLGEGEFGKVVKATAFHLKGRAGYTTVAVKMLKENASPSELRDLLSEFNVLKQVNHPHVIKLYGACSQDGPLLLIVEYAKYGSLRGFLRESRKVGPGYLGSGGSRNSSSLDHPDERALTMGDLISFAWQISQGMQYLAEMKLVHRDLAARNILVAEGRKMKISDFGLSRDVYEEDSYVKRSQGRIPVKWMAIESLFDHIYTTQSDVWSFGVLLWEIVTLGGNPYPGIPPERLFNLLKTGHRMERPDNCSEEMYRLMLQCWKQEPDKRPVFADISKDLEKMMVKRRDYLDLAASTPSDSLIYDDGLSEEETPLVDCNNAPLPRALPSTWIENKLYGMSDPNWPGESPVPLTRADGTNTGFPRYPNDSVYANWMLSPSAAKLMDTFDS

[23] = biological target: 5'-AMP-activated protein kinase catalytic subunit alpha-1 (Homo sapiens, UniProt Q13131); format: functional
[24] = biological target: Casein kinase I isoform alpha (Homo sapiens, UniProt P48729); format: functional
Casein kinase I isoform alpha, sequence (P48729 whole entry, canonical isoform): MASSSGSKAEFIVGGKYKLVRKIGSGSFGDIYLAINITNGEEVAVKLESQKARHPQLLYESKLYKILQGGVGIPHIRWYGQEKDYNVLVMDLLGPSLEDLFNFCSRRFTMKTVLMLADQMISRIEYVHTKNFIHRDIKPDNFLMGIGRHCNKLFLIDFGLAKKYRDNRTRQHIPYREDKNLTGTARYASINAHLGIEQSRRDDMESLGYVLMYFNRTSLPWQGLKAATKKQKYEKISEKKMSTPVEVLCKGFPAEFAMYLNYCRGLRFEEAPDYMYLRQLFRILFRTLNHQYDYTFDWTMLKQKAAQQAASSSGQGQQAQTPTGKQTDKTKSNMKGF

[25] = biological target: Trypsin (Sus scrofa, UniProt P00761); test: trypsin protease activity blockade – biochemical, quenched peptide fluorescence, cherry-pick, selectivity assay for Rce1 protease inhibitor project, dose response (AID 488789)
Trypsin, sequence (P00761 whole entry): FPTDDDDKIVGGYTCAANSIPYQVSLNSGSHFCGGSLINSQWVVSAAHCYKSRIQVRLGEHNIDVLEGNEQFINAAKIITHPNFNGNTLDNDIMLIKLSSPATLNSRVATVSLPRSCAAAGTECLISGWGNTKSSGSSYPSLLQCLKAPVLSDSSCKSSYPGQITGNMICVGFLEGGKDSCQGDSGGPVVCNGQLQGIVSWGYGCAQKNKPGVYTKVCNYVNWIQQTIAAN

[26] = biological target: T4, CAAX prenyl protease 2 (Saccharomyces cerevisiae S288c, UniProt Q03530); format: biochemical
T4 sequence (Q03530 whole entry): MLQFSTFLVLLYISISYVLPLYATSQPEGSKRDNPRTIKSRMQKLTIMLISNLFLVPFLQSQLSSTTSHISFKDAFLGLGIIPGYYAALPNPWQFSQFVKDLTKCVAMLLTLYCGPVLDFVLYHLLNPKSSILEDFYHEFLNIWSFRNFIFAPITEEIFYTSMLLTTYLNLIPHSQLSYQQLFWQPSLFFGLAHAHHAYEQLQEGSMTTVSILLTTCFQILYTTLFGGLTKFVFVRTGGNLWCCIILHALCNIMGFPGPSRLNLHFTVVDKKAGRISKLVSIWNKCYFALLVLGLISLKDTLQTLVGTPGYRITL

[27] = biological target: T4, CAAX prenyl protease 2; test: inhibition of Rce1p peptide cleavage – biochemical, plate reader, dry powder retest, dose response (AID 588851)
[28] = biological target: T5, CAAX prenyl protease 2 (Homo sapiens, UniProt Q9Y256); test: inhibition of Ras-converting CAAX endoprotease – biochemical, plate reader, dry powder samples, dose response (AID 588848)
T5 sequence (Q9Y256 whole entry): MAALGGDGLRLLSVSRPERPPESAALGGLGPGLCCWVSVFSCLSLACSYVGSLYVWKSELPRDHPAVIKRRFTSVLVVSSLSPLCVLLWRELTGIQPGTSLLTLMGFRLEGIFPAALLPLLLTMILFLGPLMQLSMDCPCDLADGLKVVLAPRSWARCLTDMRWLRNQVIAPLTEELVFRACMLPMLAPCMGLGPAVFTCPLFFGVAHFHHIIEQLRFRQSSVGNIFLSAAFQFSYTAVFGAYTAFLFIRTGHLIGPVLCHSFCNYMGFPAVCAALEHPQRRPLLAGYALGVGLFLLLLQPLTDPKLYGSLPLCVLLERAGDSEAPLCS

[29] = biological target: T6, Cytochrome P450 1A2 (Homo sapiens, UniProt P05177);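 note: PubChem cytochrome P450 panel assay, CYP1A2 panel member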
T6 sequence (P05177 whole entry): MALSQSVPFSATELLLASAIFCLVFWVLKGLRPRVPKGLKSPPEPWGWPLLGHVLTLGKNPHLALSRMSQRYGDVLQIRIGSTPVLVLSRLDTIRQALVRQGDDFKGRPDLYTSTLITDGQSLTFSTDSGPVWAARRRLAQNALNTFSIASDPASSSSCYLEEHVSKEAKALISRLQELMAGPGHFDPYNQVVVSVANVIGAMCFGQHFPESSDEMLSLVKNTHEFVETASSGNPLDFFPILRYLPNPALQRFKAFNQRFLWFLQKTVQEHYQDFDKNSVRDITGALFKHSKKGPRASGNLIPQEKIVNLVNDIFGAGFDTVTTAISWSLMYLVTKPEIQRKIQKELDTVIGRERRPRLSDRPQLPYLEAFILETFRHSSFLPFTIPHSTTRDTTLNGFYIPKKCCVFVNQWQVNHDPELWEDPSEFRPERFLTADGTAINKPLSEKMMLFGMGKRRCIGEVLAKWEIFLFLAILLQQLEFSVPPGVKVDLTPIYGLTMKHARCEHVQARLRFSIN

[30] = biological target: Botulinum neurotoxin type A (Clostridium botulinum (strain Hall / ATCC 3502 / NCTC 13319 / Type A), UniProt P0DPI1); test: High-throughput multiplex microsphere dose response for inhibitors of toxin protease, specifically Botulinum neurotoxin light chain A protease, compounds from Cherry Pick 01.; format: functional; settings: read-out: EC50_MICROM
Botulinum neurotoxin type A, sequence (P0DPI1 2-448 limits assumed): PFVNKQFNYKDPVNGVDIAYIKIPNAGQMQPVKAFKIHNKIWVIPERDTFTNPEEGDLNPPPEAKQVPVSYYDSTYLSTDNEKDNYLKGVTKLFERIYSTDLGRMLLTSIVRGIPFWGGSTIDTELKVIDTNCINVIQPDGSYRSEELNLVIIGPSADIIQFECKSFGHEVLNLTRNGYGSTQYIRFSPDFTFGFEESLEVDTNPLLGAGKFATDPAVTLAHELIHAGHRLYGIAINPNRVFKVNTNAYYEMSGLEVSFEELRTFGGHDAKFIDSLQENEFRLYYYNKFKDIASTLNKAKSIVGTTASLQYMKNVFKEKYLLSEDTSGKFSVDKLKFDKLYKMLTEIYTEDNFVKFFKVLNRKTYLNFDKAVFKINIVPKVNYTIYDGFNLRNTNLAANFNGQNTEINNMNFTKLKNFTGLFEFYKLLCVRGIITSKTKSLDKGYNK

[31] = biological target: DNA dC->dU-editing enzyme APOBEC-3A (Homo sapiens, UniProt P31941); test: SAR analysis of small molecule inhibitors of APOBEC3A DNA Deaminase via a fluorescence-based single-stranded DNA deaminase assay.; format: functional; settings: read-out: IC50_Mean
[32] = biological target: DNA dC->dU-editing enzyme APOBEC-3G (Homo sapiens, UniProt Q9HC16); test: inhibition of APOBEC3G ssDNA deamination – biochemical, fluorescence, single-stranded DNA substrate, SAR follow-up (AID 602136); format: functional; settings: read-out: IC50_Mean
[33] = biological target: Protein disulfide-isomerase (Homo sapiens, UniProt P07237); test: inhibition of PDI-driven insulin aggregation – biochemical, turbidity, absorbance, cherry-picked samples, dose response (AID 602350); format: functional

CCOc1cc(/C=C2\C(=N)N3N=C(S(=O)(=O)CC)SC3=NC2=O)ccc1O
IC50 [1]: > 100 µM (inactive)
IC50 [2]: 28.6 µM (active)
AC50 [3]: 24.9 µM (active)
IC50 [4]: 79.6 µM (active)
IC50 [5]: 34.8 µM (active)
IC50 [6]: 55.7 µM (active)

O=C1NS(=O)(=O)c2ccc(Cl)cc21
Ki [7]: 79.4 µM (active)
Ki [8]: 50.1 µM (active)
Ki [9]: 79.4 µM (active)
Ki [10]: 20 µM (active)
Ki [11]: 25.1 µM (active)
Ki [12]: 31.6 µM (active)
Ki [13]: 20 µM (active)
Ki [14]: 79.4 µM (active)
Ki [15]: 20 µM (active)
Ki [16]: 63.1 µM (active)
Ki [17]: 63.1 µM (active)
Ki [18]: 50.1 µM (active)
Ki [19]: 79.4 µM (active)
Ki [20]: 31.6 µM (active)
Ki [21]: 63.1 µM (active)
Ki [22]: 100 µM (active)
Ki [23]: 50.1 µM (active)
Ki [24]: 100 µM (active)

CCOc1cc(S(=O)(=O)N(Cc2ccccc2)Cc2ccccc2)c(OCC)cc1-n1cnnn1
AC50 [25]: 34 µM (active)
AC50 [26]: 1.45 µM (active)
AC50 [27]: 16.8 µM (active)
AC50 [28]: 35.6 µM (active)
AC50 [29]: 15.8 µM (inconclusive)

COc1ccc(OC)c(-c2nc3cc4ccccc4cc3nc2-c2ccccc2)c1
EC50 [30]: 17.9 µM (active)

Cc1cc(C(=O)N2CCCC(NS(C)(=O)=O)C2)c(C)n1Cc1ccccc1 (stereo not drawn)
IC50 [31]: > 99 µM (inactive)
IC50 [32]: > 99 µM (inactive)

COc1ccc(C(=O)Nc2ccccc2C(=O)NCc2ccco2)cc1
AC50 [33]: 0.819 µM (active)
